The assay concerns the target T1, Autotaxin (Homo sapiens, UniProt Q13822).
T1 construct: from tissue; host or cells: pooled human plasma
Briefly: LPA formation in pooled human plasma (ex vivo autotaxin inhibition). The assay is classed as biochemical. As to conditions: 2 hours incubation. How it is done: Autotaxin is a plasma phosphodiesterase that converts lysophosphatidylcholine (LPC) into lysophosphatidic acid (LPA), therefore LPA formation was used to evaluate the potency of autotaxin inhibitors. The potency of compound was evaluated ex vivo in pooled human plasma.
Various concentrations of compound were incubated with plasma for 2 hours, and the LPA 18:2 and 20:4 concentration was measured by LC/MS/MS. To determine the LPA18:2 or 20:4 concentration in study plasma, a 10× calibration standard of LPA 18:2 or 20:4 were prepared by serial dilution in butyl alcohol: 20000, 10000, 5000, 2000, 1000, 500, 200, 100, 50, 20, and 10 ng/mL. 3 μL of calibration standard solution was added into 27.0 μL of blank plasma in 1.5-mL microcentrifuge tubes to generate 1× calibration standards. The 30.0 μL of standards or study plasma was added into 1.5-mL microcentrifuge tubes. 200 μL of butyl alcohol (containing 25.0 ng/mL LPA17:0 for internal control) was added into each 1.5-mL microcentrifuge tube containing study plasma or calibration standards. After vortexing for 1 minute and centrifuging at 10000 rpm for 10 min, 180 μL of supernatant was transferred into a 96-well plate and the LPA18:2 concentration in the plasma was quantitated using LC/MS/MS together with standards. Briefly, 8 μL of the solutions were injected for LC-MS/MS analysis using an ACQUITY UPLC BEH C18 column (2.1×50 mm, 1.7 μm) with mobile phase A [20 mM NH4OAC in water (0.1% FA)] and phase B [5 mM NH4OAC in water/0.2% FA in ACN=5:95]. Mass spectrometer parameters optimization for LPA18:2 were performed by Deprotonated molecular ion at m/z 433.2 ([M−H]^−) for LPA18:2, 457.2 for LPA20:4 and abundant product ion at m/z 152.8 for both LPA18:2 and LPA20:4 were obtained. Quantitative data were acquired in multiple reaction monitoring (MRM) negative electrospray ionization mode
The inhibition rate of LPA formation was determined by comparing the levels of LPA in treated and non-treated plasma. The data was plotted against the corresponding concentration of compound and the IC50 was calculated through non-linear regression fitting.

[1] abbreviates: LPA 18:2 by LC/MS/MS, read-out: LPA formation (18:2) (IC50).
Setting [2] is: LPA 20:4 by LC/MS/MS, read-out: LPA formation (20:4) (IC50).

The structures appear in SMILES notation. pIC50: −log10 of the molar value. Read-outs that look alike come from different tables or passages of the source. Where only a bound is given, the exact number is not on record here.

As for `CCc1nn2c(C)cc(N3CC4(CN(C(=O)N5CC(O)C5)C4)C3)cc2c1N(C)c1nc(-c2ccc(F)cc2)c(C#N)s1` [Example 28, 2-((2-ethyl-5-(6-(3-hydroxyazetidine-1-carbonyl)-2,6-diazaspiro[3.3]heptan-2-yl)-7-methylpyrazolo[1,5-a]pyridin-3-yl)(methyl)amino)-4-(4-fluorophenyl)thiazole-5-carbonitrile], the negative-log IC50 (pIC50) under setting [1] was at least 7.00 and the pIC50 under setting [2] was at least 7.00.

As to `CCc1nn2c(C)cc(N3CC4(CN(C(=O)CO)C4)C3)cc2c1N(C)c1nc(-c2ccc(F)cc2)c(C#N)s1` [Example 29, 2-((2-ethyl-5-(6-(2-hydroxyacetyl)-2,6-diazaspiro[3.3]heptan-2-yl)-7-methylpyrazolo[1,5-a]pyridin-3-yl)(methyl)amino)-4-(4-fluorophenyl)thiazole-5-carbonitrile], the pIC50 is 6.30 to 7.00 under setting [1] and 6.00 to 6.30 under setting [2].

For the compound `CCc1nn2c(C)cc(N3CC4(CN(C(=O)C(C)(C)O)C4)C3)cc2c1N(C)c1nc(-c2ccc(F)cc2)c(C#N)s1` [Example 30, 2-((2-ethyl-5-(6-(2-hydroxy-2-methylpropanoyl)-2,6-diazaspiro[3.3]heptan-2-yl)-7-methylpyrazolo[1,5-a]pyridin-3-yl)(methyl)amino)-4-(4-fluorophenyl)thiazole-5-carbonitrile], the pIC50 is at least 7.00 under setting [1] and at least 7.00 under setting [2].

For `CCc1nn2c(C)cc(N3CC4(CN(C(=O)C5COC5)C4)C3)cc2c1N(C)c1nc(-c2ccc(F)cc2)c(C#N)s1` [Example 31, 2-((2-ethyl-7-methyl-5-(6-(oxetane-3-carbonyl)-2,6-diazaspiro[3.3]heptan-2-yl)pyrazolo[1,5-a]pyridin-3-yl)(methyl)amino)-4-(4-fluorophenyl)thiazole-5-carbonitrile], the pIC50 reads like this: under setting [1], 6.30 to 7.00; under setting [2], 6.30 to 7.00.

For `CCc1nn2c(C)cc(N3CC4(CN(C(=O)N5CCN(C)CC5)C4)C3)cc2c1N(C)c1nc(-c2ccc(F)cc2)c(C#N)s1` [Example 32, 2-((2-ethyl-7-methyl-5-(6-(4-methylpiperazine-1-carbonyl)-2,6-diazaspiro[3.3]heptan-2-yl)pyrazolo[1,5-a]pyridin-3-yl)(methyl)amino)-4-(4-fluorophenyl)thiazole-5-carbonitrile], the pIC50 under setting [1] is at least 7.00 and the pIC50 under setting [2] is at least 7.00.

`CCc1nn2c(C)cc(N3CC4(CN(C(=O)C5CCN(C)CC5)C4)C3)cc2c1N(C)c1nc(-c2ccc(F)cc2)c(C#N)s1` [Example 33, 2-((2-ethyl-7-methyl-5-(6-(1-methylpiperidine-4-carbonyl)-2,6-diazaspiro[3.3]heptan-2-yl)pyrazolo[1,5-a]pyridin-3-yl)(methyl)amino)-4-(4-fluorophenyl)thiazole-5-carbonitrile]: the pIC50 was at least 7.00 under setting [1] and 6.30 to 7.00 under setting [2].

For `CCc1nn2c(C)cc(N3CC4(CN(C(=O)OC5CCOC5)C4)C3)cc2c1N(C)c1nc(-c2ccc(F)cc2)c(C#N)s1` (stereo not drawn) [Example 34, tetrahydrofuran-3-yl 6-(3-((5-cyano-4-(4-fluorophenyl)thiazol-2-yl)(methyl)amino)-2-ethyl-7-methylpyrazolo[1,5-a]pyridin-5-yl)-2,6-diazaspiro[3.3]heptane-2-carboxylate], the negative-log IC50 (pIC50) is 6.30 to 7.00 under setting [1] and 6.30 to 7.00 under setting [2].

For `CCc1nn2c(C)cc(N3CC4(C3)CN(c3ncco3)C4)cc2c1N(C)c1nc(-c2ccc(F)cc2)c(C#N)s1` [Example 35, 2-((2-ethyl-7-methyl-5-(6-(oxazol-2-yl)-2,6-diazaspiro[3.3]heptan-2-yl)pyrazolo[1,5-a]pyridin-3-yl)(methyl)amino)-4-(4-fluorophenyl)thiazole-5-carbonitrile], the pIC50 runs as follows: under setting [1], 6.30 to 7.00; under setting [2], 6.30 to 7.00.

Turning to `CCc1nn2c(C)cc(N3CCC4(CN(C(=O)N5CC(O)C5)C4)C3)cc2c1N(C)c1nc(-c2ccc(F)cc2)c(C#N)s1` [Example 36, 2-((2-ethyl-5-(2-(3-hydroxyazetidine-1-carbonyl)-2,6-diazaspiro[3.4]octan-6-yl)-7-methylpyrazolo[1,5-a]pyridin-3-yl)(methyl)amino)-4-(4-fluorophenyl)thiazole-5-carbonitrile], the negative logarithm of the IC50 (pIC50) is at least 7.00 under setting [1] and at least 7.00 under setting [2].

On to `CCc1nn2c(C)cc(N3CCC4(CCN(C(=O)N5CC(O)C5)C4)CC3)cc2c1N(C)c1nc(-c2ccc(F)cc2)c(C#N)s1` [Example 37, 2-((2-ethyl-5-(2-(3-hydroxyazetidine-1-carbonyl)-2,8-diazaspiro[4.5]decan-8-yl)-7-methylpyrazolo[1,5-a]pyridin-3-yl)(methyl)amino)-4-(4-fluorophenyl)thiazole-5-carbonitrile], for which the negative logarithm of the IC50 (pIC50) is at least 7.00 under setting [1] and at least 7.00 under setting [2].

`CCc1nn2c(C)cc(N3CC4(CN(C(=O)C5CCCO5)C4)C3)cc2c1N(C)c1nc(-c2ccc(F)cc2)c(C#N)s1` (stereo not drawn) [Example 38, 2-((2-ethyl-7-methyl-5-(6-(tetrahydrofuran-2-carbonyl)-2,6-diazaspiro[3.3]heptan-2-yl)pyrazolo[1,5-a]pyridin-3-yl)(methyl)amino)-4-(4-fluorophenyl)thiazole-5-carbonitrile]: the pIC50 runs as follows: under setting [1], at least 7.00; under setting [2], at least 7.00.

On to `CCc1nn2c(C)cc(N3CC4(CN(C(=O)[C@H]5CCOC5)C4)C3)cc2c1N(C)c1nc(-c2ccc(F)cc2)c(C#N)s1` [Example 39, (S)-2-((2-ethyl-7-methyl-5-(6-(tetrahydrofuran-3-carbonyl)-2,6-diazaspiro[3.3]heptan-2-yl)pyrazolo[1,5-a]pyridin-3-yl)(methyl)amino)-4-(4-fluorophenyl)thiazole-5-carbonitrile], for which the negative-log IC50 (pIC50) was at least 7.00 under setting [1] and at least 7.00 under setting [2].

With `CCc1nn2c(C)cc(N3CC4(CN(C(=O)[C@@H]5CCOC5)C4)C3)cc2c1N(C)c1nc(-c2ccc(F)cc2)c(C#N)s1` [Example 40, (R)-2-((2-ethyl-7-methyl-5-(6-(tetrahydrofuran-3-carbonyl)-2,6-diazaspiro[3.3]heptan-2-yl)pyrazolo[1,5-a]pyridin-3-yl)(methyl)amino)-4-(4-fluorophenyl)thiazole-5-carbonitrile], the pIC50 by setting is: under setting [1], at least 7.00; under setting [2], at least 7.00.

Take `CCc1nn2c(C)cc(N3CC4(CN(C(=O)C5CCOCC5)C4)C3)cc2c1N(C)c1nc(-c2ccc(F)cc2)c(C#N)s1` [Example 41, 2-((2-ethyl-7-methyl-5-(6-(tetrahydro-2H-pyran-4-carbonyl)-2,6-diazaspiro[3.3]heptan-2-yl)pyrazolo[1,5-a]pyridin-3-yl)(methyl)amino)-4-(4-fluorophenyl)thiazole-5-carbonitrile]: the negative logarithm of the IC50 (pIC50) runs as follows: under setting [1], at least 7.00; under setting [2], at least 7.00.

`CCc1nn2c(C)cc(N3CC4(CN(C(=O)N5CCOCC5)C4)C3)cc2c1N(C)c1nc(-c2ccc(F)cc2)c(C#N)s1` [Example 42]: the negative logarithm of the IC50 (pIC50) under setting [1] is at least 7.00 and the pIC50 under setting [2] was at least 7.00.

For the compound `CCc1nn2c(C)cc(N3CCC4(CN(C(=O)C5CCOCC5)C4)C3)cc2c1N(C)c1nc(-c2ccc(F)cc2)c(C#N)s1` [Example 43, 2-((2-ethyl-7-methyl-5-(2-(tetrahydro-2H-pyran-4-carbonyl)-2,6-diazaspiro[3.4]octan-6-yl)pyrazolo[1,5-a]pyridin-3-yl)(methyl)amino)-4-(4-fluorophenyl)thiazole-5-carbonitrile], the negative-log IC50 (pIC50) is, setting by setting: under setting [1], at least 7.00; under setting [2], at least 7.00.

In the case of `CCc1nn2c(C)cc(N3CC4(CCN(C(=O)C5CCOCC5)C4)C3)cc2c1N(C)c1nc(-c2ccc(F)cc2)c(C#N)s1` [Example 44, 2-((2-ethyl-7-methyl-5-(6-(tetrahydro-2H-pyran-4-carbonyl)-2,6-diazaspiro[3.4]octan-2-yl)pyrazolo[1,5-a]pyridin-3-yl)(methyl)amino)-4-(4-fluorophenyl)thiazole-5-carbonitrile], the pIC50 was at least 7.00 under setting [1] and at least 7.00 under setting [2].

With `CCc1nn2c(C)cc(N3CC4(CCN(C(=O)[C@H]5CCOC5)C4)C3)cc2c1N(C)c1nc(-c2ccc(F)cc2)c(C#N)s1` [Example 45, (S)-2-((2-ethyl-7-methyl-5-(6-(tetrahydrofuran-3-carbonyl)-2,6-diazaspiro[3.4]octan-2-yl)pyrazolo[1,5-a]pyridin-3-yl)(methyl)amino)-4-(4-fluorophenyl)thiazole-5-carbonitrile], the pIC50 under setting [1] is at least 7.00 and the pIC50 under setting [2] is at least 7.00.

A word on the pIC50: it is the negative decadic logarithm of the IC50, by convention in mol/L.
